“And” between values parts separate entries of the source, which are not always exact repeats. Identical values can stand only once.
How the values were obtained:
CA VII [1] = biological target: T1, CA VII (Homo sapiens, UniProt P43166); assay: Fluorescent thermal shift assay (FTSA), CA VII; type: binding; settings: for Kd: FTSA
T1 construct: five isoforms of human recombinant catalytic domains of carbonic anhydrases (CAs); made in house

CA II [2] = biological target: T2, CA II (Homo sapiens, UniProt P00918); assay: Isothermal titration calorimetry (ITC), CA II; type: binding
T2 construct: five isoforms of human recombinant catalytic domains of carbonic anhydrases (CAs); made in house

CA II [3] = biological target: T2, CA II; assay: Fluorescent thermal shift assay (FTSA), CA II; type: binding; settings: 37°C, pH 7.0, read-out: Dissociation constants Kd, CA II
CA I [4] = biological target: T3, CA I (Homo sapiens, UniProt P00915); assay: Fluorescent thermal shift assay (FTSA), CA I; type: binding; settings: for Kd: FTSA; for energetic contribution (difference in ΔG of binding), CA I: against compound 2, from FTSA, pH 7.0, 37°C
T3 construct: five isoforms of human recombinant catalytic domains of carbonic anhydrases (CAs); made in house
T3 sequence (P00915 4-261 limits assumed): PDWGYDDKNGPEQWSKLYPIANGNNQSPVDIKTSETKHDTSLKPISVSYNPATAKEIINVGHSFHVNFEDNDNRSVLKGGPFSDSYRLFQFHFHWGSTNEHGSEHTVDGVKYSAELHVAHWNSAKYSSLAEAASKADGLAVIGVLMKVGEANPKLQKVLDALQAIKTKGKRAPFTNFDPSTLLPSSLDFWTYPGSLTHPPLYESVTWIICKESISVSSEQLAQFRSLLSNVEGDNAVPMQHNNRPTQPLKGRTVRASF

CA XIII [5] = biological target: T4, CA XIII (Homo sapiens, UniProt Q8N1Q1); assay: Fluorescent thermal shift assay (FTSA), CA XIII; type: binding; settings: for shift of the melting temperature Tm, CA XIII: compound added to 200 μM, pH 7.0
T4 construct: five isoforms of human recombinant catalytic domains of carbonic anhydrases (CAs); made in house
T4 sequence (Q8N1Q1 4-261 limits assumed): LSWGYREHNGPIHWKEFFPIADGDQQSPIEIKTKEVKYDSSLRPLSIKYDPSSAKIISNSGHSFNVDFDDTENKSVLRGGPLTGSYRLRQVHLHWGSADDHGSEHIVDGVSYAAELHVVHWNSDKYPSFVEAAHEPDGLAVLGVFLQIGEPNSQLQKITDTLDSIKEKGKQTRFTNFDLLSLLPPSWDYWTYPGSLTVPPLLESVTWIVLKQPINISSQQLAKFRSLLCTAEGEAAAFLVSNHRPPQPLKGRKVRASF

CA XIII [6] = biological target: T4, CA XIII; assay: Isothermal titration calorimetry (ITC), CA XIII; type: binding
CA VII [7] = biological target: T1, CA VII; assay: Isothermal titration calorimetry (ITC), CA VII; type: binding
CA I [8] = biological target: T3, CA I; assay: Isothermal titration calorimetry (ITC), CA I; type: binding
CA XII [9] = biological target: T5, CA XII (Homo sapiens, UniProt O43570); assay: Isothermal titration calorimetry (ITC), CA XII; type: binding
T5 construct: five isoforms of human recombinant catalytic domains of carbonic anhydrases (CAs); made in house
T5 sequence (O43570 30-289 limits assumed): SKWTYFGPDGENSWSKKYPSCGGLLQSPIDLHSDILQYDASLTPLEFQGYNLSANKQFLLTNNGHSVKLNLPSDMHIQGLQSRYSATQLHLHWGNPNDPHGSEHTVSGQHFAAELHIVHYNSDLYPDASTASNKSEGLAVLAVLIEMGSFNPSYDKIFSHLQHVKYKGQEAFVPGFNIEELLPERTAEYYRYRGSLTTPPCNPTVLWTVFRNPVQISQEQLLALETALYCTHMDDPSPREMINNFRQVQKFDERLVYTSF

CA XII [10] = biological target: T5, CA XII; assay: Fluorescent thermal shift assay (FTSA), CA XII; type: binding
CA VII [11] = settings: read-out: affinity, CA VII; inhibition method, literature value ref 5; cited from earlier work
[12] = 37°C, pH 7.0, read-out: Dissociation constants Kd, CA VII
[13] = ITC, 37°C, pH 7.0, read-out: Dissociation constants Kd, CA II
[14] = 37°C, pH 7.0, read-out: Dissociation constants Kd, CA XIII
[15] = ITC, 37°C, pH 7.0, read-out: Dissociation constants Kd, CA I
[16] = ITC, 37°C, pH 7.0, read-out: Dissociation constants Kd, CA XII
[17] = 37°C, pH 7.0, read-out: Dissociation constants Kd, CA XII
[18] = 37°C, pH 7.0, read-out: Dissociation constants Kd, CA I

T1 sequence (P43166 5-262 limits assumed): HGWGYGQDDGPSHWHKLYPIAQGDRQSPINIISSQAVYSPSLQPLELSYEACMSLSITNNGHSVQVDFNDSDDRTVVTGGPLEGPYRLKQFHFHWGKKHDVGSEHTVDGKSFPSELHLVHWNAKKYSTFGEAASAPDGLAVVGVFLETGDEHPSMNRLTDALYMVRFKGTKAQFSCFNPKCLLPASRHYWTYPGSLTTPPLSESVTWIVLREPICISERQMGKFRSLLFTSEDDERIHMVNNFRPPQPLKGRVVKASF

Row | Kd (CA VII [1]; [12]) | Kd (CA II [2]; [13]) | Kd (CA II [3]) | energetic contribution (difference in ΔG of binding), CA I (CA I [4]) | Kd (CA XIII [5]; [14]) | shift of the melting temperature Tm, CA XIII (CA XIII [5]) | Kd (CA XIII [6]; [14]) | Kd (CA VII [7]; [12]) | Kd (CA I [8]; [15]) | Kd (CA XII [9]; [16]) | Kd (CA XII [10]; [17]) | Kd (CA I [4]; [18]) | Compound | other results
1 | 0.0043 µM | < 0.02 µM | 0.0025 µM | -5.93 kcal/mol | 0.0067 µM | significant | < 0.02 µM | < 0.02 µM | < 0.02 µM | 0.04 µM | 0.025 µM | – | NS(=O)(=O)c1ccc2c(c1)S(=O)(=O)N(CCc1ccccc1)C2=O [Compound 4] | Kd (CA I [4]; read-out: affinity (Kd), CA I): 0.00033 µM
2 | – | – | – | – | 2000 µM | – | > 100 µM | > 100 µM | > 100 µM | > 100 µM | – | > 10000 µM | O=C1NS(=O)(=O)c2ccccc21 [Compound 1, saccharin, reference compound] | affinity weaker than the literature value, CA VII (CA VII [1]; FTSA Kd against 10 nM of ref 5): 100,000 fold; Kd (CA VII [1]; read-out: Kd, CA VII): 1000 µM; Kd (CA I [4]; no shift up to 7.5 mM, read-out: Kd, CA I): > 10000 µM; Kd (CA XIII [5]; read-out: Kd, CA XIII): 2000 µM; Kd (CA XIII [6]; all tested CAs, read-out: Kd, CA XIII): > 100 µM; Kd (CA VII [7]; all tested CAs, read-out: Kd, CA VII): > 100 µM; Ki (CA VII [11]): 0.01 µM; Kd (CA I [8]; ITC, all tested CAs, read-out: Kd, CA I): > 100 µM; Kd (CA XII [9]; ITC, all tested CAs, read-out: Kd, CA XII): > 100 µM; Kd (CA XII [10]; read-out: Kd, CA XII): 5900 µM
3 | – | – | 0.4 µM | – | ~0.2 µM and 0.2 µM | – | 0.12 µM | – | – | – | 0.22 µM | – | NS(=O)(=O)c1ccc2c(c1)S(=O)(=O)NC2=O [Compound 2] | Kd (CA II [2]): 0.29 µM; Kd (CA I [8]): 1.4 µM; Kd (CA XII [9]): 0.099 µM
4 | 0.11 µM | 0.056 µM | 0.02 µM | -3.47 kcal/mol | 0.045 µM | significant | 0.047 µM | 0.16 µM | 0.028 µM | 0.25 µM | 0.29 µM | 0.018 µM | CC#CCN1C(=O)c2ccc(S(N)(=O)=O)cc2S1(=O)=O [Compound 3] | –

— PMC4168026 (BioMed Research International, 2014)
